Source: BindingDB's records for doi:10.1021/jm049771u (Bar-Ilan University, 2004)

Biological target: P2Y purinoceptor 1 (Rattus norvegicus, UniProt P49651)
Assay: Concentration required for calcium mobilization at rat purinergic 2Y1 receptor expressed in HEK 293 cells

Sequence of P2Y purinoceptor 1 (P49651 whole entry): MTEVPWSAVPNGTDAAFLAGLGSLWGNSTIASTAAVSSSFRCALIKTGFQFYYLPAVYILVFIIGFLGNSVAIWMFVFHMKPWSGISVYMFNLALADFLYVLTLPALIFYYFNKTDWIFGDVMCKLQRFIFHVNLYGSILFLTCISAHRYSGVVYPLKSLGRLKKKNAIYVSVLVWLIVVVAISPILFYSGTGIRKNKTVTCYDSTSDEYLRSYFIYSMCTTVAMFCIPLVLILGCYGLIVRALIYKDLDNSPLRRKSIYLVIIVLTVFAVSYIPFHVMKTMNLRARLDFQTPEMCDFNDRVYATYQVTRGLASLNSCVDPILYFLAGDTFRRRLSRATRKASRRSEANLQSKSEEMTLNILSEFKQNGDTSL

EC50: 4.5 nM
SMILES: B[PH](O)(OC[C@H]1OC(n2cnc3c(N)nc(Cl)nc32)[C@H](O)[C@@H]1O)OP(=O)(O)OP(=O)(O)O (stereo partly specified)
